Laboratory results published in patent publication US20080194540A1, “Use of a Tricyclic Antidepressant Drug For Promoting Endocytosis” (RINA NETZWERK RNA-TECHNOLOGIEN GMBH, priority 2003, published 2008).

Tests used:
HepG2 cells = assay: Mammal cells system transfection with luciferase plasmid (luciferase activity); type: cell-based; details: FIG. 1b, concentration series, ordinate values standardized to chloroquine
Protocol: HepG2 cells were drawn in Dulbecco's Modified Eagle Medium (DMEM, Gibco BRL, Eggenstein, Germany), supplemented with 10% FBS (fetal bovine serum, Gibco) and 1 μg/ml insulin. On day 1, the cells were removed by means of trypsination, washed and distributed on the wells of a 24-well tissue culture dish, namely 1.5·10^7 cells per well.
24 hours later the transfection tests were performed with the luciferase plasmid from example 1 with different substances at approx. 70 to 80% confluence. The supernatant was removed, and then a mixture (250 μl) containing medium, 12.5 μl dextran (10 mg/ml), 0.5 μl of the plasmid and the respective substance was added to every well. After 2.5 hours incubation at 37° C., the supernatant was removed, and 500 μl complete medium were added to each well. On day 5, the luciferase activity was measured by using the Dual Luciferase® Reporter Assay Kit (Promega, Mannheim, Germany). For this purpose, 48 hours after the transfection, the cell culture supernatants were removed, and the cells were solubilized after addition of 100 μl 1× lysis buffer per well (Promega) for 20 minutes at 20° C. on a slow shaker. 20 μl of the cell-free supernatant were transferred into a 96-well plate (Corning and Costar, Wiesbaden, Germany) and reacted with 100 μl luciferase assay buffer. The luciferase activity was measured with a luminometer (EG&G Berthold MicrolumatPlus).
For each used substance, the optimum concentration was determined by means of concentration series. For this purpose, concentration series of the respective substances were used. For comparing, corresponding measurements were performed with chloroquine. […] The ordinate values are standardized to chloroquine.

[1] = test system: yeast cells (strain RPY10); assay: Yeast system transfection with pFL1 plasmid (cfu relative to negative control); type: cell-based, Saccharomyces cerevisiae; details: FIG. 1a, concentration series, ordinate values standardized to chloroquine
Protocol: A first cell system is a yeast system. The transfection protocol corresponded to that of the document B. Neukamm et al., Biochimica et Biophysica Acta 1572:67-76 (2002). For the measurements, a lab robot (Zinsser, Frankfurt, Germany) was used, and a pipetting protocol was prepared.
Yeast precultures were drawn from cultures of a −70° C. glycerol stock of the strain RPY10 (R. C. Piper et al., Eur J Cell Biol 65:305-318 (1995)) for 72 hours. In the main culture, the cells were drawn over night in YPD medium up to a cell density of 5 to 8·10^7 cells/ml. 12·10^9 cells were harvested and washed twice with the same volume of distilled water. The cells were made competent for the transfection by soaking in distilled water for 30 minutes at 4° C. The competent cells were harvested and resuspended in 10 ml 34% sucrose, adjusted with HCl to pH 4. The suspension was immediately transferred into a sterilized 40 ml glass tube (Zinsser Analytik, Frankfurt, Germany), which were then sealed by an aluminum foil. The tubes were then placed on a shaker on the platform of the lab robot and treated for 40 seconds at 300 rpm. The suspension was automatically distributed into the wells of a 96-well microtiter plate (80 μl each by using stainless steel tips).
The subsequent pipetting protocol was as follows. First, solutions of a substance according to the invention or of a reference substance in different concentrations were added. Exactly 5 minutes later, 10 μl of a solution or suspension of the pFL1 plasmid (0.15 μg/μl) of example 1 were automatically added to the mixture of cells and substance. Some wells were used for a negative control, and only the used solvents and the plasmid were added to the cell suspension, not however the substance. After termination of the pipetting protocol, the plate was covered and placed on the Desyre mixer (Zinsser Analytik). After vortexing for 1 minute at 1,300 rpm, an incubation was performed at 28° C. for 18-20 hours. After the incubation, 110 μl distilled water each were slowly added. Then the cells of each well were transferred to 6-well plates (PS Macroplate, Greiner), filled up with 4 ml WMIXura (Neukamm et al., see above). The wells of the microtiter plate were each washed with 50 μl distilled water, and the washing solution was pipetted on the solid surface of the WMIXura. The macroplates were left dry and incubated for 4 days at 28° C.
Colony forming units (cfu) were then counted in every well. The obtained cfu values were related to the cfu values of the negative control. This ratio is a measure for the transfection effectivity.
For each used substance, the optimum concentration was determined by means of concentration series. For this purpose, concentration series of the respective substances were used. […]

Row | Structure (SMILES) | optimum concentration for promoting transfection, compared to chloroquine (HepG2 cells) | optimum concentration for promoting transfection, compared to chloroquine [1]
1 | Clc1ccc2c(c1)C(N1CCNCC1)=Nc1ccccc1O2 [amoxapine] | smaller | smaller
2 | CN(C)CCCN1c2ccccc2Sc2ccc(Cl)cc21 [chlorpromazine] | smaller | smaller
3 | CN(C)CCC=C1c2ccccc2COc2ccccc21 [doxepine] | similarly high | similarly high
4 | CNCCCC12CCC(c3ccccc31)c1ccccc12 [maprotyline] | smaller | smaller
